Results on three substances are retold here after article PMC10278063 (ACS Chemical Biology, 2023).

Several values for one entry are separate records, joined by “and”; a condition that tells them apart may be missing. Identical values can stand only once. No end group written: not given here. *: point of attachment. ClAc = O=C(CCl)*

The test system of this experiment is PSMD2. In kind it is binding, human.
Take “ClAc-FRRNVNWWRLYC (also: sidechain bridge or staple (positions not given here)) [hit 5]”: the “ELISA S/N” value is more than 30 and the “PSMD2 binding compared with MC3” value was “equivalent or better binding”.

As for “ClAc-FSRNAGFWARYC (also: sidechain bridge or staple (positions not given here)) [hit 3]”, the “ELISA S/N” value was 49.0 and > 30; the “PSMD2 binding compared with MC3” value is recorded as “equivalent or better binding”.

For “ClAc-FSALRHIAIFRYC (also: sidechain bridge or staple (positions not given here)) [hit 2]”, the “ELISA S/N” value was more than 30 and the “PSMD2 binding compared with MC3” value was “equivalent or better binding”.
